The structures appear in SMILES notation.

Consider `CCCc1c(OCc2cccc(C(=O)O)c2OCC)ccc(C(C)=O)c1O`, for which the melting point lay within 154 to 156 °C. As to `CNc1nc(Nc2ccc(Cl)c(CNS(C)(=O)=O)c2)ncc1[N+](=O)[O-]`, the melting point is 250 °C. The same measure for `Oc1ccc(-c2ccccn2)c(O)c1`: 170 to 172 °C; for `CC(C)(C)c1cc(OC(=O)c2ccccc2)ccc1O`: 120 to 121 °C. Compound `COc1ccc(-c2nc(SCS(C)=O)[nH]c2-c2ccc(OC)cc2)cc1` (centres undefined) returned a melting point of 84.5 to 86.5 °C. In the case of `COC(=O)COc1nc(N)nc(-c2ccccc2)c1-c1ccc(=O)n(C(C)C)n1`, the melting point was 150 to 152 °C.

Regarding `CCOC(=O)C1=Cc2cc(S(C)=O)ccc2OC1C(F)(F)F` (centres undefined), the melting point was 92.2 to 98.4 °C. The same measure for `CCOC(=O)c1cc(=O)c2ccccc2[nH]1`: 210 to 212 °C. The same measure for `COc1cc2c(cc1C(=O)Cc1ccc(C(=O)O)cc1)C(C)(C)CCC2(C)C`: 164 to 165 °C. `O=C(Nc1cccc(Cl)c1)ONC1=Nc2ccc(Cl)cc2C(c2ccccc2)=NC1` came in with a melting point of 158 to 159 °C. `CC1(C)C2CCC3(C2)C1c1ncncc1CC3(C)C` (centres undefined): the melting point fell in the range of 44 to 45 °C. Regarding `Nc1nccc(Oc2ccc3c(C(=O)O)cccc3c2)n1`, the melting point came out at 205 °C. The same measure for `CCCOc1ccc(F)cc1-c1ccc(C#N)c(=O)[nH]1`: 242 to 243 °C; for `O=C(Oc1ccccc1)c1cc(Br)nn1-c1ncccc1Cl`: 65 to 67 °C.

The compound `O=S1(=O)c2ccccc2Oc2ccccc21` displayed a melting point of 145 to 146 °C. As to `CCCCCCCCCCc1sc2c(sc3c2sc2c4sccc4sc23)c1CCCCCCCCCC`, the melting point was 50.9 to 52.5 °C. The same measure for `COc1ccc(C2CCN(C(=O)Nc3ccc4cc(CN5CCCC5)cnc4c3)CC2)cc1`: 241 to 243 °C; for `Cc1nc(CC2OC(COC(=O)c3ccccc3)C(O)C2O)n2nc(Cl)ccc12` (centres undefined): 155 to 157 °C; for `CC(C)CC1=CC(c2ccccc2)C2=C(CCCC2=O)N1` (centres undefined): 182 to 184 °C. The same measure for `Nc1cncc(NC(=S)NC2CCCCC2)c1`: 114 to 116 °C. The compound `Cc1sc(Cc2ccc(Br)cc2)c(C(=O)c2ccc(OS(=O)(=O)c3cnn(C)c3)c(C3CCCC3)c2)c1C` gave a melting point of 55 to 60 °C. The same measure for `O=C1c2cc3nnn(CCC4CCCCC4)c(=O)c3cc2OC2CCCN12` (centres undefined): 170 °C; for `O=C(Nc1ccc(-n2nc(C(F)(F)F)cc2C2CC2)c(F)c1)C1(c2ccccc2)CCC1`: 72 to 76 °C; for `CCC(=O)NCC(CO)c1cccc2ccc(OC)cc12` (centres undefined): 128 to 129 °C. The same measure for `O=C(NCCn1ccnc1)c1sc2ccccc2c1Cl`: 132 to 134 °C; for `CON(C)C(=O)/C=C/C(=C(c1ccc(F)cc1)c1ccc(F)cc1)C(C)C`: 109 to 110 °C; for `Cc1cc(C(=O)N[C@@H]2CCc3cccc(N4CCN(C)CC4)c3C2)ccc1N1CCOCC1`: 172 to 175 °C. The same measure for `O=C(O)[C@H]1C[C@@H](C(=O)O)c2c(Cl)cc(Cl)cc2N1` (relative stereo): 225 to 227 °C; for `CCOC(=O)C1=C(C)NC(CF)=C(C(=O)OCC)C1c1cccc([N+](=O)[O-])c1` (centres undefined): 139 to 141 °C; for `CCOc1ccc(CC(=O)O)cc1OCCCc1cn(-c2ccc(C(F)(F)F)cn2)nc1C(C)C`: 116 to 117 °C. Compound `O=CNNc1ccc(NC(=S)N2CCOCC2)cc1` returned a melting point of 204 to 206 °C.

As to `O=C(O)CCC(=O)c1ccc(F)c([N+](=O)[O-])c1`, the melting point was determined as 136 °C. The same measure for `O=C(O)CN(C(=O)CCc1nc2c(F)c(F)cc(F)c2s1)c1ccccc1`: 121 to 124 °C; for `N#CCCc1cncnc1N[C@H]1CC[C@@H](c2ccccc2)CC1`: 58 to 59 °C.

Take `CC(C)(C)OC(=O)CN1C(=O)SC(Cc2ccc(N3CCC(NCC(O)c4ccc(O)c(NS(C)(=O)=O)c4)CC3)cc2)C1=O` (centres undefined): the melting point lay within 130 to 132 °C. Compound `COc1cccc(C(F)(F)F)c1C(=O)O` gave a melting point of 129 to 130 °C. Regarding `Cc1cc(-c2cc(C(F)(F)F)n3ncc(C(=O)Nc4cc(S(N)(=O)=O)sc4Cl)c3n2)ccc1C(F)(F)F`, the melting point came out at 283 °C.

`Cn1cnc2cc(NC(=O)c3cc4cc(F)cnc4n3Cc3cccc(F)c3)ccc21` yielded a melting point of 266 to 268 °C. The same measure for `CN1CCN(C(=O)OC2C3=C(SCCS3)C(=O)N2c2ccccn2)CC1` (centres undefined): 145 °C; for `CC(C)C[C@@H]1NC(=O)O[C@H]1CCOS(C)(=O)=O`: 99 to 100 °C. As to `CCCn1nc2c(N)nc3ccccc3c2c1CCN(CC)C(N)=O`, the melting point lay in the range of 206 to 207 °C. With `O=C(CCc1ccccc1)c1ccc2n1Cc1ccccc1N(C(=O)COc1ccc(Cl)cc1)C2`, the melting point is 126 to 128 °C.

In the case of `CCCc1cc(C(O)(CC)CC)ccc1-c1cc(O)ccc1CC`, the melting point is 130 °C. `COc1cc(Nc2c(C#N)cnc3cc(-c4ccc(CCN5CCOCC5)cc4)c(OC)cc23)c(Cl)cc1Cl` came in with a melting point of 215 to 217 °C. The same measure for `CC1(c2ccccc2)OC(=O)C(Cl)(Cl)C(C(Cl)(Cl)Cl)N1OC(=O)Nc1ccccc1` (centres undefined): 154 to 157 °C; for `CCCCCCCCc1ccc(-c2ccc(COc3ccc(OCC(C)OC(=O)OCCCC)cc3)cc2)cc1` (centres undefined): 94 °C.

Compound `NCCOCC(O)c1cccc2ccccc12` (centres undefined) returned a melting point of 89.5 to 92 °C. The compound `Nc1nc(Cc2ccc(Br)cc2)cc(C2CCN(C(=O)c3ccc4c(c3)OCO4)CC2)n1` yielded a melting point of 162 °C. The compound `Cc1[nH]c(=O)ccc1C(=O)c1ccc(O)cc1` displayed a melting point of 280 to 282 °C.

`CC(C)C1NC(c2ccccc2)=NNC1=O` (centres undefined) yielded a melting point of 164 °C.

Compound `Nc1cc(C(=O)c2ccccc2)ccc1Cl` yielded a melting point of 91.9 °C. The same measure for `COc1ccc2c(c1)cc(Cc1cc3ccccc3n1S(=O)(=O)c1ccccc1)n2S(=O)(=O)c1ccccc1`: 98 to 100 °C. In turn, `CC(=O)Nc1ccc(C2=NNC(=O)C3CC23)cc1` (centres undefined) had a melting point of 269 to 270 °C.

For the compound `CC(=O)NC(C)Cc1ccc(C=CC(=O)O)cc1` (centres undefined), the melting point was in the range of 207 to 208 °C. The same measure for `NC(=O)N1C(=O)Cc2ccc(-c3ccccc3)cc21`: 188 to 189 °C; for `CC(=O)Nc1ccc2c(c1)[C@@H](O)[C@H](Br)C(C)(C)O2` (relative stereo): 170 °C; for `COP(=O)(OC)C(=O)Cc1ccccc1`: 117 to 122 °C. `O=C1Nc2cccnc2N(C(=O)NCCN2CCC(CCCN3CCCCC3)CC2)c2ccccc21` yielded a melting point of 192 to 193 °C. In the case of `N#Cc1ccc2[nH]c3c(ccc4c(C=O)c[nH]c43)c2c1`, the melting point was over 250 °C. `Clc1cc2c(cc1Cn1c(C3OCCO3)nc(Br)c1Br)OCO2` gave a melting point of 188 °C.

With `CC12CCC(O)CC1=CCC1C2CCC2(C)C(=NC3CC3)CCC12` (centres undefined), the melting point worked out at 187 °C. `CC(C)C[C@@H](CO)NC(=O)[C@@H](O)[C@@H](Cc1ccc(S(C)(=O)=O)cc1)NC(=O)OCc1ccccc1` had a melting point of 165 to 173 °C. With `COc1ccc(C(=O)c2cc3cc(OC)ccc3[nH]2)cc1`, the melting point fell in the range of 155 to 158 °C. Regarding `CCCCCCOc1cccc(C[C@H](NC(C)=O)[C@H](O)CNCc2cccc(CC)c2)c1`, the melting point lay in the range of 102 to 105 °C. The same measure for `Cn1c(=N)c(C(=O)NCCN2CCOCC2)c(O)c2cc(Cl)ccc21`: 211 to 213 °C. The same measure for `CC(=O)c1ccccc1-c1cccc(-n2cnc(-c3nc(C)no3)c2)c1`: 144 to 146 °C; for `CCOc1ccc2[nH]c(=O)n(N3CCOCC3)c2c1`: 155 °C. Compound `CC1(C)CC(NC(=O)c2ccc(-c3cc4cc(Cl)c(Cl)cc4[nH]3)c(O)c2)CC(C)(C)N1` displayed a melting point of over 270 °C. The same measure for `CCc1cc(N)c([N+](=O)[O-])cc1CC`: 63 to 65 °C; for `CC(=NOCCO)c1cn(C)c(-c2ccccc2)n1`: 133 to 135 °C; for `CCOCc1nc2c(N)nc3ccc(NC(=O)C(C)C)cc3c2n1CC(C)(C)O`: 259 to 261 °C. For `COC(=O)c1ccc(C#CC(=O)c2ccc3c(c2)CCCC3(C)C)cc1O`, the melting point was in the range of 89 to 90 °C. `Fc1ccc(-c2cc3ncnc(Nc4ccc5[nH]ccc5c4)c3s2)cc1`: the melting point was in the range of 193 to 205 °C.

Regarding `CCOC(=O)c1[nH]cc2c1NC1=C(C(=O)CCC1)C2c1ccc(Sc2nc3cc(F)c(F)cc3[nH]2)o1` (centres undefined), the melting point was in the range of 160 to 170 °C. As to `CCNc1ccc(S(=O)c2ccccc2)cc1N` (centres undefined), the melting point is 140 to 142 °C. The same measure for `COc1ccc(CN2Cc3cc(OC)c(O)cc3C(OC)C2)cc1` (centres undefined): 84 to 85 °C; for `COc1cccc(C(C(N)=O)(c2c(Cl)cncc2Cl)C2CCCC2)c1` (centres undefined): 106 to 107 °C. `CC=NN(C(=O)c1ccc(Cl)cc1)c1ccc(OC)c(F)c1`: the melting point lay in the range of 97 to 99 °C. The same measure for `Cn1c2c(c3c4c(N)nc(N)nc4ccc31)CCCC2`: 288 to 292 °C; for `NC(=O)c1nnsc1NCCCCCCCCCCCCCCc1ccccc1`: 79 to 81 °C; for `CCCCNC(=O)n1c(=NC(F)(F)F)oc2ccc([N+](=O)[O-])cc21`: 121 to 122 °C. The same measure for `O=C(CCl)N1CCSC1COc1ccccc1O` (centres undefined): 89 to 91 °C; for `COc1ccc(-c2nc3nccnc3[nH]2)c(N(C)C)c1`: 279 to 280 °C; for `O=C(c1ccc(Sc2ccc(O)cc2)cc1)c1ccc(Sc2ccc(O)cc2)cc1`: 219 to 221 °C. In turn, `O=C(CSc1ccc(Cl)cc1C(=O)O)c1ccccc1` yielded a melting point of 154 to 156 °C. Take `CC(C)c1nc(COCc2ccccc2)n(CC(C)(C)O)c1Sc1cc(Cl)cc(Cl)c1`: the melting point lay within 181 to 182 °C. The same measure for `CCNc1ccc(Cl)nc1`: 65 to 66 °C; for `CC(C)(C)OC(=O)N[C@@H]1CCC(=O)OC1=O`: 117 to 119 °C. The same measure for `CC(C)(C)OC(=O)N[C@H](CC(=O)OCc1ccccc1)C(=O)N[C@H](COC(=O)OCc1ccccc1)c1ccccc1`: 105 to 106 °C.

For orientation: melting point means the temperature, or range, at which the solid turns liquid.
